# Experimental data from patent US10174053B2, “2 substituted cephem compounds” (Glaxo Group Limited, priority 2012, dated 2019).
# Like-named read-outs stand apart in the source and are kept apart here.
# Legend:
# Assay in all cases: In vitro antimicrobial activity, MIC by broth microdilution (CLSI)
# Type in all cases: cell-based
# K. pneumoniae SR01358 = details: for MIC: Klebsiella pneumoniae
# Procedure, shortened: (§1)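 MIC (μg/mL) by CLSI broth microdilution, inoculum 5×10^5 cfu/mL, in cation-adjusted Iso-Sensitest broth containing human apo-transferrin.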
# A. baumannii JMI2346 = details: for MIC: Acinetobacter baumannii
# Procedure, shortened: as §1
# E. Coli JMI1890 = details: for MIC: Escherichia coli, read-out: Minimum Inhibitory Concentration (MIC) E. Coli JMI:1890
# Procedure, shortened: as §1
# A. baumannii JMI7 = details: for MIC: Acinetobacter baumannii
# Procedure, shortened: as §1
# [1] = SR01358, KPC-2, ESBL and KPC-type carbapenemase producing strain, 5×10^5 cfu/mL, cation-adjusted Iso-Sensitest broth containing human Apo-transferrin, read-out: Minimum Inhibitory Concentration (MIC) K. pneumoniae SR01358
# [2] = JMI2346, OXA-51, TEM, ESBL and OXA-type carbapenemase producing strain, 5×10^5 cfu/mL, cation-adjusted Iso-Sensitest broth containing human Apo-transferrin, read-out: Minimum Inhibitory Concentration (MIC) A. baumannii JMI:2346
# [3] = PER-1, TEM-1, ESBL producing strain, 5×10^5 cfu/mL, cation-adjusted Iso-Sensitest broth containing human Apo-transferrin
# [4] = JMI7, PER-1, OXA-23, 51, ESBL and OXA-type carbapenemase producing strain, 5×10^5 cfu/mL, cation-adjusted Iso-Sensitest broth containing human Apo-transferrin, read-out: Minimum Inhibitory Concentration (MIC) A. baumannii JMI:7
structure (smiles),measurement,setting,value
C[C@@H]1S[C@@H]2[C@H](NC(=O)/C(=N\OC(C)(C)C(=O)[O-])c3csc(N)n3)C(=O)N2C(C(=O)[O-])=C1C[N+]1(CCNC(=O)C(=O)c2cc(O)c(O)c(F)c2)CCCC1.[Na+] [Compound I-84],MIC,K. pneumoniae SR01358; [1],≤ 0.031 µg/mL
same,MIC,A. baumannii JMI2346; [2],16 µg/mL
same,MIC,E. Coli JMI1890; [3],2 µg/mL
same,MIC,A. baumannii JMI7; [4],1 µg/mL
C[C@@H]1S[C@@H]2[C@H](NC(=O)/C(=N\OC(C)(C)C(=O)[O-])c3csc(N)n3)C(=O)N2C(C(=O)O)=C1C[N+]1(CCN2C(=O)c3ccc(O)c(O)c3C2=O)CCCC1 [Compound I-51],MIC,K. pneumoniae SR01358; [1],0.125 µg/mL
same,MIC,A. baumannii JMI2346; [2],8 µg/mL
same,MIC,E. Coli JMI1890; [3],0.5 µg/mL
same,MIC,A. baumannii JMI7; [4],2 µg/mL
C[C@@H]1S[C@@H]2[C@H](NC(=O)/C(=N\OC(C)(C)C(=O)[O-])c3csc(N)n3)C(=O)N2C(C(=O)[O-])=C1C[N+]1(C)[C@@H]2CC[C@H]1C[C@@H](N1C(=O)c3cc(O)c(O)cc3C1=O)C2.[Na+] (some centres unmarked) [Compound I-77],MIC,K. pneumoniae SR01358; [1],≤ 0.031 µg/mL
same,MIC,A. baumannii JMI2346; [2],1 µg/mL
same,MIC,E. Coli JMI1890; [3],0.25 µg/mL
same,MIC,A. baumannii JMI7; [4],0.5 µg/mL
C[C@@H]1S[C@@H]2[C@H](NC(=O)/C(=N\OC(C)(C)C(=O)[O-])c3csc(N)n3)C(=O)N2C(C(=O)[O-])=C1C[N+]12CCC(CC1)N(C(=O)C(=O)c1ccc(O)c(O)c1)CC2.[Na+] [Compound I-108],MIC,K. pneumoniae SR01358; [1],≤ 0.031 µg/mL
same,MIC,A. baumannii JMI2346; [2],2 µg/mL
same,MIC,E. Coli JMI1890; [3],0.5 µg/mL
same,MIC,A. baumannii JMI7; [4],0.5 µg/mL
C[C@@H]1S[C@@H]2[C@H](NC(=O)/C(=N\OC(C)(C)C(=O)[O-])c3csc(N)n3)C(=O)N2C(C(=O)O)=C1C[N+]12CCC(CC1)N(C(=O)C(=NO)c1cc(O)c(O)c(Cl)c1)CC2 [Compound I-138],MIC,"K. pneumoniae SR01358; SR01358, read-out: Minimum Inhibitory Concentration (MIC) K. pneumoniae SR01358",≤ 0.031 µg/mL
same,MIC,"A. baumannii JMI2346; JMI2346, read-out: Minimum Inhibitory Concentration (MIC) A. baumannii JMI:2346",4 µg/mL
same,MIC,E. Coli JMI1890,0.25 µg/mL
same,MIC,"A. baumannii JMI7; JMI7, read-out: Minimum Inhibitory Concentration (MIC) A. baumannii JMI:7",0.5 µg/mL
C[C@@H]1S[C@@H]2[C@H](NC(=O)/C(=N\OC(C)(C)C(=O)[O-])c3csc(N)n3)C(=O)N2C(C(=O)O)=C1C[N@+]1(C)[C@@H]2CC[C@H]1C[C@@H](NC(=O)c1ccc(O)c(O)c1Cl)C2 [Compound I-54],MIC,K. pneumoniae SR01358; [1],≤ 0.031 µg/mL
same,MIC,A. baumannii JMI2346; [2],1 µg/mL
same,MIC,E. Coli JMI1890; [3],0.125 µg/mL
same,MIC,A. baumannii JMI7; [4],0.5 µg/mL
CO/N=C(\C(=O)NCC12CC[N+](CC3=C(COO)N4C(=O)[C@@H](NC(=O)/C(=N\OC(C)(C)C(=O)[O-])c5csc(N)n5)[C@H]4S[C@H]3C)(CC1)CC2)c1cc(O)c(O)c(F)c1 [Compound I-132],Minimum Inhibitory Concentration (MIC) K. pneumoniae SR01358,"K. pneumoniae SR01358; KPC-2, ESBL and KPC-type carbapenemase producing strain, 5×10^5 cfu/mL, cation-adjusted Iso-Sensitest broth containing human Apo-transferrin",≤0.031 µg/mL
same,Minimum Inhibitory Concentration (MIC) A. baumannii JMI:2346,"A. baumannii JMI2346; OXA-51, TEM, ESBL and OXA-type carbapenemase producing strain, 5×10^5 cfu/mL, cation-adjusted Iso-Sensitest broth containing human Apo-transferrin",4 µg/mL
same,Minimum Inhibitory Concentration (MIC) E. Coli JMI:1890,E. Coli JMI1890; [3],0.25 µg/mL
same,Minimum Inhibitory Concentration (MIC) A. baumannii JMI:7,"A. baumannii JMI7; PER-1, OXA-23, 51, ESBL and OXA-type carbapenemase producing strain, 5×10^5 cfu/mL, cation-adjusted Iso-Sensitest broth containing human Apo-transferrin",1 µg/mL
C[C@@H]1S[C@@H]2[C@H](NC(=O)/C(=N\OC(C)(C)C(=O)[O-])c3csc(N)n3)C(=O)N2C(C(=O)[O-])=C1C[N+]1(CCNC(=O)c2cc(O)c(O)c(Cl)c2)CCCC1.[Na+] [Compound I-61],MIC,K. pneumoniae SR01358; [1],0.063 µg/mL
same,MIC,A. baumannii JMI2346; [2],16 µg/mL
same,MIC,E. Coli JMI1890; [3],2 µg/mL
same,MIC,A. baumannii JMI7; [4],2 µg/mL
